Laboratory results taken from article PMC9686514, “Design of Antimicrobial Peptides with Cell-Selective Activity and Membrane-Acting Mechanism against Drug-Resistant Bacteria” (Antibiotics, 2022).
Where no end group is shown, it is not given here.

Key:
Type in all cases: cell-based
[1] = tested on: Escherichia coli (ATCC 25922); settings: ATCC 25922, 24 h, pH 7.2
From the text: (§1) Pseudomonas aeruginosa (ATCC 15692), Escherichia coli (ATCC 25922), and Staphylococcus aureus (ATCC 25923) were purchased from the American Type Culture Collection. Listeria monocytogens (KCTC 3710) and Bacillus subtilis (KCTC 1998) were from the Korean Collection for Type Cultures. Drug-resistant S. aureus (DRSa-001~005) and P. aeruginosa (DRPa-001~005) were collected from Paik Hospital of Inje University in Busan, South Korea. Pre-cultured bacteria grown to mid-log phase were suspended in 10 mM sodium phosphate (SP, pH 7.2) or phosphate-buffered saline (PBS, pH 7.2) with 10% culture media. Bacterial suspensions were added to each peptide dilute (final 5 × 10^5 colony-forming units (cfu)/mL), after which the plates were incubated at 37 °C for 24 h. The turbidity of each well was measured at the absorbance at 600 nm and the morphology of bacterial growth was observed under light microscopy. MICs (Minimum inhibitory concentrations) were defined as the lowest concentration of peptide that expresses the complete inhibition of bacterial growth.

[2] = tested on: Pseudomonas aeruginosa (ATCC 15692); settings: ATCC 15692, 24 h, pH 7.2
From the text: as §1

[3] = tested on: Listeria monocytogenes (KCTC 3710); settings: KCTC 3710, 24 h, pH 7.2
From the text: as §1

[4] = tested on: Bacillus subtilis (KCTC 1998); settings: KCTC 1998, 24 h, pH 7.2
From the text: as §1

[5] = tested on: Staphylococcus aureus (ATCC 25923); settings: ATCC 25923, 24 h, pH 7.2
From the text: as §1

rat red blood cells = experiment: Hemolysis; settings: 6.25 µM; 8% (v/v) rat RBCs in PBS, 1 h, 37 °C, absorbance 414 nm
Experimental: Fresh rat erythrocytes were collected and washed by centrifugation at 1000× g for 10 min with PBS. The rat RBCs (8% (v/v)) were added in a two-fold serially diluted peptide with PBS, followed by incubation for 1 h at 37 °C. After centrifugation of samples at 1000× g for 10 min, the supernatants were collected and their absorbance was measured at 414 nm. The 8% RBCs dissolved in PBS and RBCs treated with Triton X-100 were considered as the negative and positive controls, respectively. The hemolysis activity was calculated using the formula, % hemolysis = [(Abssample − Absnegative)/(Abspositive − Absnegative)] × 100 [43, 44].

[6] = tested on: HaCaT (human keratinocyte) cells; experiment: Cytotoxicity (MTT); settings: 200 µM, 24 h, 37 °C
Experimental: To examine the cytotoxic effect of peptides, HaCaT (human keratinocyte) cells were sub-cultured in Dulbecco’s modified Eagle medium (DMEM) containing 10% fetal bovine serum, 100 µg/mL streptomycin, and 100 U/mL penicillin at 37 °C in a 5% CO2 chamber. The cells seeded into 4 × 10^3 cells/well were incubated for 24 h. Peptide solutions diluted with DMEM were incubated with cells for 24 h at 37 °C. 3-(4,5-Dimethyl-2-thiazolyl)-2,5-diphenyltetrazolium Bromide (MTT) solution was added to the cells, followed by additional incubation for 4 h. After removing the media, 200 µL of dimethyl sulfoxide was added to the wells. Absorbance of each well was measured at 570 nm using a microtiter reader (Molecular Devices Emax, CA, USA).

KKIIKKIWKW-NH2 [KIW-10]
MIC, Ec [1]: 8 µM
MIC, Ec (numbers in parentheses) [1]: 64 µM
MIC, Pa [2]: 16 µM
MIC, Pa (numbers in parentheses) [2]: 64 µM
MIC, Lm [3]: 4 µM
MIC, Lm (numbers in parentheses) [3]: 128 µM
MIC, Bs [4]: 4 µM
MIC, Bs (numbers in parentheses) [4]: 32 µM
MIC, Sa [5]: 16 µM
MIC, Sa (numbers in parentheses) [5]: 128 µM

WIKKIWKKIIKKIK-NH2 [WIK-14]
MIC, Ec [1]: 4(4) μM
MIC, Ec (numbers in parentheses) [1]: 4(4) μM
MIC, Pa [2]: 2(2) μM
MIC, Pa (numbers in parentheses) [2]: 2(2) μM
MIC, Lm [3]: 0.5 µM
MIC, Lm (numbers in parentheses) [3]: 1 µM
MIC, Bs [4]: 1(1) μM
MIC, Bs (numbers in parentheses) [4]: 1(1) μM
MIC, Sa [5]: 2((2) μM
MIC, Sa (numbers in parentheses) [5]: 2((2) μM

WIKKIWKKIK-NH2 [WIK-10]
MIC, Ec [1]: 8 µM
MIC, Ec (numbers in parentheses) [1]: 32 µM
MIC, Pa [2]: 8 µM
MIC, Pa (numbers in parentheses) [2]: 32 µM
MIC, Lm [3]: 2 µM
MIC, Lm (numbers in parentheses) [3]: 16 µM
MIC, Bs [4]: 2 µM
MIC, Bs (numbers in parentheses) [4]: 8 µM
MIC, Sa [5]: 8 µM
MIC, Sa (numbers in parentheses) [5]: 64 µM

KKIIKKIIKKIWKW-NH2 [KIW-14]
MIC, Ec [1]: 4(4) μM
MIC, Ec (numbers in parentheses) [1]: 4(4) μM
MIC, Pa [2]: 2(2) μM
MIC, Pa (numbers in parentheses) [2]: 2(2) μM
MIC, Lm [3]: 0.5 µM
MIC, Lm (numbers in parentheses) [3]: 1 µM
MIC, Bs [4]: 1 µM
MIC, Bs (numbers in parentheses) [4]: 2 µM
MIC, Sa [5]: 4 µM
MIC, Sa (numbers in parentheses) [5]: 8 µM

KKIWKKWIKKIIKI-NH2 [KWI-14]
MIC, Ec [1]: 4(4) μM
MIC, Ec (numbers in parentheses) [1]: 4(4) μM
MIC, Pa [2]: 2(2) μM
MIC, Pa (numbers in parentheses) [2]: 2(2) μM
MIC, Lm [3]: 0.5 µM
MIC, Lm (numbers in parentheses) [3]: 1 µM
MIC, Bs [4]: 1 µM
MIC, Bs (numbers in parentheses) [4]: 2 µM
MIC, Sa [5]: 4 µM
MIC, Sa (numbers in parentheses) [5]: 8 µM

RRIWRRWIRI-NH2 [RWI-10]
MIC, Ec [1]: 2 µM
MIC, Ec (numbers in parentheses) [1]: 4 µM
MIC, Pa [2]: 16 µM
MIC, Pa (numbers in parentheses) [2]: 32 µM
MIC, Lm [3]: 2 µM
MIC, Lm (numbers in parentheses) [3]: 8 µM
MIC, Bs [4]: 1 µM
MIC, Bs (numbers in parentheses) [4]: 4 µM
MIC, Sa [5]: 8 µM
MIC, Sa (numbers in parentheses) [5]: 16 µM

KKIWKKWIKI-NH2 [KWI-10]
MIC, Ec [1]: 8 µM
MIC, Ec (numbers in parentheses) [1]: 64 µM
MIC, Pa [2]: 16 µM
MIC, Pa (numbers in parentheses) [2]: 64 µM
MIC, Lm [3]: 2 µM
MIC, Lm (numbers in parentheses) [3]: 64 µM
MIC, Bs [4]: 2 µM
MIC, Bs (numbers in parentheses) [4]: 32 µM
MIC, Sa [5]: 16 µM
MIC, Sa (numbers in parentheses) [5]: 128 µM

RRIIRRIWRW-NH2 [RIW-10]
MIC, Ec [1]: 8 µM
MIC, Ec (numbers in parentheses) [1]: 16 µM
MIC, Pa [2]: 16 µM
MIC, Pa (numbers in parentheses) [2]: 32 µM
MIC, Lm [3]: 2 µM
MIC, Lm (numbers in parentheses) [3]: 8 µM
MIC, Bs [4]: 2 µM
MIC, Bs (numbers in parentheses) [4]: 4 µM
MIC, Sa [5]: 8 µM
MIC, Sa (numbers in parentheses) [5]: 16 µM

CC[C@H](C)[C@H](NC(=O)CN)C(=O)NCC(=O)N[C@@H](C)C(=O)N[C@H](C(=O)N[C@@H](CC(C)C)C(=O)N[C@@H](CCCCN)C(=O)N[C@H](C(=O)N[C@@H](CC(C)C)C(=O)N[C@H](C(=O)N[C@H](C(=O)NCC(=O)N[C@@H](CC(C)C)C(=O)N1CCC[C@H]1C(=O)N[C@@H](C)C(=O)N[C@@H](CC(C)C)C(=O)N[C@H](C(=O)N[C@@H](CO)C(=O)N[C@@H](Cc1c[nH]c2ccccc12)C(=O)N[C@H](C(=O)N[C@@H](CCCCN)C(=O)N[C@@H](CCCNC(=N)N)C(=O)N[C@@H](CCCCN)C(=O)N[C@@H](CCCNC(=N)N)C(=O)N[C@@H](CCC(N)=O)C(=O)N[C@@H](CCC(N)=O)C(N)=O)[C@@H](C)CC)[C@@H](C)CC)[C@@H](C)O)[C@@H](C)O)C(C)C)C(C)C [Melittin]
Hemolytic effect (rat red blood cells): strong hemolytic effect
Cell survival [6]: less than 20%

WIRRIWRRIR-NH2 [WIR-10]
MIC, Ec [1]: 2 µM
MIC, Ec (numbers in parentheses) [1]: 4 µM
MIC, Pa [2]: 4 µM
MIC, Pa (numbers in parentheses) [2]: 8 µM
MIC, Lm [3]: 2(2) μM
MIC, Lm (numbers in parentheses) [3]: 2(2) μM
MIC, Bs [4]: 1(1) μM
MIC, Bs (numbers in parentheses) [4]: 1(1) μM
MIC, Sa [5]: 4 µM
MIC, Sa (numbers in parentheses) [5]: 8 µM

WIKKIWKKIIKEIK-NH2 [WIKE-14]
MIC, Ec [1]: 4 µM
MIC, Ec (numbers in parentheses) [1]: 64 µM
MIC, Pa [2]: 8 µM
MIC, Pa (numbers in parentheses) [2]: 32 µM
MIC, Lm [3]: 4 µM
MIC, Lm (numbers in parentheses) [3]: 8 µM
MIC, Bs [4]: 2 µM
MIC, Bs (numbers in parentheses) [4]: 8 µM
MIC, Sa [5]: 16 µM
MIC, Sa (numbers in parentheses) [5]: 128 µM
